From paper PMC11784839, “Monoaminergic neurotransmitters are bimodal effectors of tau aggregation” (Science Advances, 2025)
“Also recorded” adds a separate entry of the source.

Experiments:
[1] = target: T1, tau (Homo sapiens, UniProt P10636); test: Tau biosensor dose titrations (HEK293T tau biosensor cells seeded with AD brain homogenate);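 further: AD brain homogenate preincubated 16 h with compound, then transfected into tau biosensor cells, seeding read as tau puncta counted by imaging, normalized to cell confluence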; format: cell-based; conditions: AD brain homogenate pretreated with indicated amounts of NT (Fig. 3A)
[2] = target: T1, tau; test: MCE Phenols Library screening, tau biosensor cell seeding assay (AvZ); format: cell-based; conditions: for Z repl 1 / Z Repl 2: Z score; for Z repl 1 / raw data 1: replicate 1; for Z Repl 2 / raw data 2: replicate 2
[3] = average Z score of the two replicates, tau seeding
[4] = average Z score of the two replicates, MCE Phenols Library screen
[5] = average puncta of the two replicates
[6] = average Z score of two replicates, Phenols Library screen

T1 sequence (P10636 623-695 limits assumed): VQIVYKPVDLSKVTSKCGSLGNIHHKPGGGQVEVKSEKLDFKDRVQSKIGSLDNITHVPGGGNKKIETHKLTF

SMILES	dose-dependent effect of NT on tau seeding [1]	Z repl 1 [2]	Z Repl 2 [2]	av Z ([2]; average Z score of the two replicates, tau biosensor seeding, MCE Phenols Library screen)	av puncta ([2]; average of raw data 1 and 2)	raw data 1 ([2]; puncta)	raw data 2 ([2]; puncta)	av Z [2, 3]	av Z [2, 4]	av puncta [2, 5]	raw data 1 ([2]; raw puncta)	raw data 2 ([2]; raw puncta)	AvZ (average z score of seeding, SDs from the mean level of seeding) ([2]; 10 μM phenol in cell cultures, AD brain homogenate preincubated 16 hours, two biological replicates, positive = catalyzes seeding, negative = inhibits)	av Z [2, 6]
Nc1ncnc2c1ncn2[C@@H]1O[C@H](CO)[C@@H](O)[C@H]1O [adenosine, reference compound]	no significant inhibitory effects on tau seeding; also recorded: dose-dependently catalyzed tau seeding	–	–	–	–	–	–	–	–	–	–	–	–	–
O=c1cc(-c2ccc(O)cc2)oc2cc(O)c([C@@H]3O[C@H](CO)[C@@H](O)[C@H](O)[C@H]3O)c(O)c12 [Isovitexin]	–	0.953	1.769	1.361	34727.5	37791.5	31663.6	–	–	–	–	–	–	–
COc1ccc(-c2oc3c(CC=C(C)C)c(O[C@@H]4O[C@H](CO)[C@@H](O)[C@H](O)[C@H]4O)cc(O)c3c(=O)c2O[C@@H]2O[C@@H](C)[C@H](O)[C@@H](O)[C@H]2O)cc1 [Icariin]	–	0.381	0.569	–	24883.3	30921.9	18844.8	0.475	–	–	–	–	–	–
COc1ccc(-c2cc(=O)c3c(O)c(OC)c(O)cc3o2)cc1 [Pectolinarigenin]	–	-0.106	0.876	–	23601.4	25077.3	22125.4	0.385	–	–	–	–	–	–
O=C(O[C@H](Cc1ccc(O)c(O)c1)C(=O)O)C1=Cc2cc(O)c(O)cc2[C@H](c2ccc(O)c(O)c2)[C@H]1C(=O)OC(Cc1ccc(O)c(O)c1)C(=O)O (stereo in doubt) [Rabdosiin]	–	-0.457	-0.234	–	–	–	–	–	-0.346	15561.2	20858.2	10264.2	–	–
C[C@H]1O[C@@H](O[C@H]2[C@H](Oc3c(-c4ccc(O)cc4)oc4cc(O)cc(O)c4c3=O)O[C@@H](CO)[C@H](O)[C@H]2O)[C@H](O)[C@@H](O)[C@@H]1O [Kaempferol-3-O-glucorhamnoside]	–	-0.601	-1.001	–	10603.6	19130.8	2076.39	–	-0.801	–	–	–	–	–
COc1ccc(-c2oc3cc(O)cc(O)c3c(=O)c2O)cc1 [Kaempferide]	–	-0.102	-1.05	–	–	25119.1	1554.77	–	-0.576	13337	–	–	–	–
O=Cc1ccc(O)c(O)c1 [Protocatechualdehyde]	–	-0.894	-0.283	–	–	15614.9	9745.34	–	–	12680.1	–	–	-0.588	–
O=C(O)C[C@@H]1C(=O)O[C@H]2[C@H](OC(=O)c3cc(O)c(O)c(O)c3)[C@@H](OC(=O)c3cc(O)c(O)c4c3[C@H]1[C@H](O)C(=O)O4)[C@H](OC(=O)c1cc(O)c(O)c(O)c1)O[C@@H]2COC(=O)c1cc(O)c(O)c(O)c1 [Chebulinic acid]	–	-2.186	-1.184	–	117.372	108.91	125.835	–	-1.685	–	–	–	–	–
COc1cc(O)cc(O)c1C(=O)/C=C/c1ccccc1 [Cardamonin]	–	-0.394	0.139	–	17936.7	21621.9	14251.5	–	–	–	–	–	–	-0.127
C=C(C)[C@H](CC=C(C)C)Cc1c(O)cc(OC)c2c1O[C@H](c1ccc(O)cc1O)[C@@H](O)C2=O [Kushenol I]	–	0.564	-0.398	–	20816.6	33117.8	8515.32	–	–	–	–	–	–	0.083
C=C(C)[C@H](CC=C(C)C)Cc1c(O)cc(O)c2c1O[C@H](c1ccccc1O)CC2=O [Kushenol A]	–	0.183	1.024	–	26122.8	28541	23704.6	0.603	–	–	–	–	–	–
